Several values for one entry are separate records, joined by “and”; a condition that tells them apart may be missing. Equal values may be shown once. Read-outs that look alike come from different tables or passages of the source.
Legend:
[1] = Plasma clearance and plasma metabolite analysis; format: in vivo, rat; settings: Wistar, rat, in vivo, iv, metabolite-corrected plasma, intravenous injection, rats
Method: (§1) PET scans with arterial blood sampling were performed in a different set of rats to generate input for pharmacokinetic modelling. For the arterial blood sampling a cannula was inserted into the femoral artery after induction of anaesthesia. The femoral vein was additionally cannulated for PET tracer injection. After cannulation, the rats were positioned in the camera and a transmission scan was acquired using a ^57Co point source. […] A 0.1 ml blood sample of was taken at 0, 5, 10, 15, 20, 30, 45, 60, 75, 90, 120, 180, 300, 450, 600, 900, 1,800 and 3,600 s after injection. A larger blood sample of 0.5 ml was taken at three time points (5, 15, 30 and/or 60 min) for metabolite analysis. After collection of each blood sample, heparinized saline was injected to prevent large changes in blood pressure. A 25 μl aliquot of whole blood was extracted from each sample for radioactivity measurement. The remainder of each sample was centrifuged at 13,000 rpm (15,996 g) for 8 min, and 25 μl plasma was taken for radioactivity measurement. The radioactivity in blood and plasma was measured with a gamma counter.
Radioactive metabolites in plasma were measured using the extra blood samples taken at three time points during each scan (5, 15, 30 and/or 60 min). After centrifugation and collection of the plasma sample for radioactive measurement, as described above, the remaining plasma was diluted with acetonitrile (1.5 times the amount of plasma) and vortex-mixed. The plasma suspension was centrifuged at 5,300 rpm (3,030 g) for 3 min, and divided into supernatant and pellet. […] Fractions of 30 s were collected and measured in the gamma counter.
The percentage of metabolites in plasma was calculated by fitting an exponential function to the values obtained from the HPLC analysis. The plasma values obtained from the blood samples during the PET scan were then corrected for the presence of these metabolites, and used together with the whole-blood curve for further analysis. Metabolite corrected plasma TACs were fitted for each individual rat using iterative nonlinear least-squares fitting to the biexponential equation: SUVt = Ae^−αt + Be^−βt, where SUVt is the plasma SUV at time t, α and β are the apparent distribution and elimination rate constants (s^−1), respectively, and A and B are the corresponding zero-time intercepts. The weighting factors were the reciprocals of the plasma SUV squared. Distribution and elimination half-lives (seconds) were calculated as the natural logarithm of 2 divided by α and β, respectively.

[2] = Radioactive metabolites of [^11C]CB184 in brain; format: in vivo, rat; settings: 30 min after injection
Method: To determine if radioactive metabolites of [^11C]CB184 entered the brain, the brain of one control rat and one HSE rat were isolated 30 min after injection and homogenized with a solution of ice-cold acetonitrile (3 ml). The homogenate was centrifuged at 6,000 rpm (3,461 g) for 10 min. The supernatant was then collected and processed by HPLC, as described above.

TSPO [3] = target: T1, TSPO (Rattus norvegicus, UniProt P16257); assay: Kinetic modelling of PET data (2TCMR, Logan): BPND and VT; format: in vivo
T1 construct: from tissue; host or cells: Brain regions and peripheral organs of male Wistar rats, measured in vivo by PET and ex vivo by gamma counting
Method: as §1
The TACs of those rats in which blood sampling was performed, together with their corresponding whole-blood and metabolite-corrected plasma curves, were used for pharmacokinetic modelling using PMOD v3.3 (PMOD Technologies, Zürich, Switzerland). […] The reversible two-tissue compartment model (2TCMR) with K 1/k 2 fixed to the whole cortex value and a fixed blood volume of 3 % were used to calculate the V T and nondisplaceable binding potential (BPND, calculated as k 3/k 4 [29]).

TSPO [4] = target: TSPO; set-up: method as in PMID 25616581; settings: cited from earlier work
TSPO [5] = system: TSPO; set-up: method as in PMID 25616581; settings: 6-hydroxydopamine-injured striatum in rats; cited from earlier work
[6] = lipophilicity; cited from earlier work
TSPO [7] = settings: normal mice; cited from earlier work
[8] = control rats (PBS group), k3/k4

Question: For `CCCN(CCC)C(=O)Cc1c(-c2ccc(O[11CH3])cc2)nc2c(Cl)cc(Cl)cn12` [[^11C]CB184], which half-life ([1]; read-out: Distribution half-life in plasma (converted)) is on record?
Answer: The half-life was 0.283 min.

Question: And the half-life ([1]; read-out: Elimination half-life in plasma)?
Answer: Its half-life is 44 ± 26 min.

Question: And the “Percentage of intact tracer present in the brain” value [2]?
Answer: The value was “approximately 99%”.

Question: And the “Binding potential (BPND), Cerebellum” value (TSPO [3]; HSE group, k3/k4)?
Answer: Its value is 3.83 ± 0.63.

Question: What about the “Binding potential (BPND), Frontal cortex” value (TSPO [3]; HSE group, k3/k4) of the same compound?
Answer: The value was 3.08 ± 1.20.

Question: And the “Binding potential (BPND), Hippocampus” value (TSPO [3]; HSE group, k3/k4)?
Answer: The value was 2.44 ± 0.34.

Question: And the “Binding potential (BPND), Midbrain” value (TSPO [3]; HSE group, k3/k4)?
Answer: Its value is 2.50 ± 0.51.

Question: What about the “Binding potential (BPND), Olfactory bulb” value (TSPO [3]; HSE group, k3/k4) of the same compound?
Answer: The value was 8.82 ± 2.97.

Question: And the “Binding potential (BPND), Rest cortices” value (TSPO [3]; HSE group, k3/k4)?
Answer: The value was 2.69 ± 0.47.

Question: What about the “Binding potential (BPND), Striatum” value (TSPO [3]; HSE group, k3/k4) of the same compound?
Answer: Its value is 1.91 ± 0.41.

Question: And the “Binding potential (BPND), Thalamus” value (TSPO [3]; HSE group, k3/k4)?
Answer: Its value is 1.85 ± 0.41.

Question: And the “Binding potential (BPND), Whole brain” value (TSPO [3]; HSE group, k3/k4)?
Answer: The value was 3.25 ± 0.41.

Question: What about the “Binding potential (BPND), Amygdala” value (TSPO [3]; [8]) of the same compound?
Answer: The value was 2.4 ± 1.2 and 2.39 ± 1.23.

Question: And the “Binding potential (BPND), Cerebellum” value (TSPO [3]; [8])?
Answer: The value was 2.88 ± 1.39.

Question: And the “Binding potential (BPND), Frontal cortex” value (TSPO [3]; [8])?
Answer: Its value is 2.14 ± 1.23.

Question: What about the “Binding potential (BPND), Hippocampus” value (TSPO [3]; [8]) of the same compound?
Answer: Its value is 1.55 ± 0.90.

Question: And the “Binding potential (BPND), Hypothalamus” value (TSPO [3]; [8])?
Answer: Its value is 2.7 ± 1.6 and 2.74 ± 1.62.

Question: What about the “Binding potential (BPND), Medulla” value (TSPO [3]; [8]) of the same compound?
Answer: Its value is 2.6 ± 1.2 and 2.64 ± 1.16.

Question: And the “Binding potential (BPND), Midbrain” value (TSPO [3]; [8])?
Answer: The value was 1.73 ± 0.98.

Question: And the “Binding potential (BPND), Olfactory bulb” value (TSPO [3]; [8])?
Answer: The value was 5.56 ± 2.67.

Question: What about the “Binding potential (BPND), Pons” value (TSPO [3]; [8]) of the same compound?
Answer: Its value is 2.6 ± 1.3 and 2.63 ± 1.31.

Question: And the “Binding potential (BPND), Rest cortices” value (TSPO [3]; [8])?
Answer: The value was 2.27 ± 1.37.

Question: What about the “Binding potential (BPND), Septum” value (TSPO [3]; [8]) of the same compound?
Answer: The value was 1.5 ± 0.9 and 1.53 ± 0.90.

Question: And the “Binding potential (BPND), Striatum” value (TSPO [3]; [8])?
Answer: The value was 1.28 ± 0.74.

Question: And the “Binding potential (BPND), Thalamus” value (TSPO [3]; [8])?
Answer: Its value is 1.17 ± 0.78.

Question: What about the “Binding potential (BPND), Whole brain” value (TSPO [3]; [8]) of the same compound?
Answer: Its value is 2.25 ± 1.17.

Question: What about the “Increase of BPND in the medulla, HSE rats vs. control rats” value (TSPO [3]; medulla) of the same compound?
Answer: The value was 93%.

Question: And the Ki (TSPO [4]; read-out: K i (TSPO affinity))?
Answer: The Ki was 0.54 nM.

Question: What about the “TSPO affinity relative to (R)-[^11C]PK11195” value (TSPO [4]; times higher affinity, ratio of K i values) of the same compound?
Answer: Its value is 7.9 times.

Question: And the “Inflammation-induced binding as compared with (R)-[^11C]PK11195” value (TSPO [5])?
Answer: The value was “comparable”.

Question: And the logP [6]?
Answer: Its logP is 2.06.

Question: What about the “Uptake in TSPO-rich regions (cerebellum and olfactory bulb) as compared with (R)-[^11C]PK11195” value (TSPO [7]) of the same compound?
Answer: The value was “higher uptake”.
